According to ChEMBL document CHEMBL3885881, “DrugMatrix”:

Organism: Rattus norvegicus
Assay: DrugMatrix - Regimen: Daily Repeat
Format: toxicity, organism-based, Sprague-Dawley
Parameters: regimen Daily Repeat, gender Male, age 6-8 weeks
Details: in vivo, iv, vehicle 100 % SALINE
[1] = […], 72 h, tissue Blood, dose 0.12 mg/Kg, dose level Low, time 3 day
[2] = […], 72 h, tissue Plasma, dose 0.12 mg/Kg, dose level Low, time 3 day
[3] = […], 120 h, tissue Blood, dose 0.12 mg/Kg, dose level Low, time 5 day
[4] = […], 120 h, tissue Plasma, dose 0.12 mg/Kg, dose level Low, time 5 day

Substance: SODIUM NITROPRUSSIDE
- URIC ACID (6 mg/kg, 120 h, tissue Plasma, dose level High, time 5 day): 1.4 mg/dL
- ABSOLUTE BASOPHIL [1]: 0 CELLS/uL
- ABSOLUTE EOSINOPHIL [1]: 0 CELLS/uL
- ABSOLUTE LYMPHOCYTE [1]: 13522.67 CELLS/uL
- ABSOLUTE MONOCYTE [1]: 88.33 CELLS/uL
- ABSOLUTE SEGMENTED NEUTROPHIL [1]: 1389 CELLS/uL
- BASOPHIL [1]: 0%
- EOSINOPHIL [1]: 0%
- ERYTHROCYTE COUNT [1]: 5.31 x10E6/uL
- HEMATOCRIT [1]: 34.4%
- HEMOGLOBIN [1]: 13.63 G/DL
- LEUKOCYTE COUNT [1]: 15 x10E3/uL
- MEAN CORPUSCULAR HEMOGLOBIN [1]: 25.67 pg
- MEAN CORPUSCULAR HEMOGLOBIN CONCENTRATION [1]: 39.63 G/DL
- MEAN CORPUSCULAR VOLUME [1]: 64.8 fL
- MONOCYTE [1]: 0.67%
- NEUTROPHIL [1]: 9.67%
- NUCLEATED RED BLOOD CELLS [1]: 0.33 /100WBC
- PLATELET COUNT [1]: 1321.67 x10E3/uL
- ALANINE AMINOTRANSFERASE [2]: 54.33 u/L
- ALBUMIN [2]: 4.1 G/DL
- ALKALINE PHOSPHATASE [2]: 342 u/L
- ASPARTATE AMINOTRANSFERASE [2]: 87.33 u/L
- BLOOD UREA NITROGEN [2]: 15 mg/dL
- CARBON DIOXIDE [2]: 26.67 mmol/L
- CHLORIDE [2]: 98.67 MEQ/L
- CHOLESTEROL [2]: 76 mg/dL
- CREATINE PHOSPHOKINASE [2]: 335.67 u/L
- CREATININE [2]: 0.11 mg/dL
- GLUCOSE [2]: 157.67 mg/dL
- LACTATE DEHYDROGENASE [2]: 223 u/L
- PHOSPHORUS [2]: 12.93 mg/dL
- POTASSIUM [2]: 6.73 MEQ/L
- TOTAL BILIRUBIN [2]: 0.23 mg/dL
- TOTAL PROTEIN [2]: 5.9 G/DL
- ABSOLUTE BASOPHIL [3]: 0 CELLS/uL
- ABSOLUTE EOSINOPHIL [3]: 39.33 CELLS/uL
- ABSOLUTE LYMPHOCYTE [3]: 10382.67 CELLS/uL
- ABSOLUTE MONOCYTE [3]: 0 CELLS/uL
- ABSOLUTE SEGMENTED NEUTROPHIL [3]: 444.67 CELLS/uL
- BASOPHIL [3]: 0%
- EOSINOPHIL [3]: 0.33%
- ERYTHROCYTE COUNT [3]: 5.02 x10E6/uL
- HEMATOCRIT [3]: 31.9%
- HEMOGLOBIN [3]: 12.83 G/DL
- LEUKOCYTE COUNT [3]: 10.87 x10E3/uL
- LYMPHOCYTE [3]: 95.67%
- MEAN CORPUSCULAR HEMOGLOBIN [3]: 25.6 pg
- MEAN CORPUSCULAR HEMOGLOBIN CONCENTRATION [3]: 40.23 G/DL
- MEAN CORPUSCULAR VOLUME [3]: 63.6 fL
- MONOCYTE [3]: 0%
- NEUTROPHIL [3]: 4%
- NUCLEATED RED BLOOD CELLS [3]: 0 /100WBC
- PLATELET COUNT [3]: 1212.67 x10E3/uL
- ALANINE AMINOTRANSFERASE [4]: 40.33 u/L
- ALKALINE PHOSPHATASE [4]: 391 u/L
- ASPARTATE AMINOTRANSFERASE [4]: 87.33 u/L
- BLOOD UREA NITROGEN [4]: 17 mg/dL
- CARBON DIOXIDE [4]: 28 mmol/L
- CHOLESTEROL [4]: 71.67 mg/dL
- CREATINE PHOSPHOKINASE [4]: 215.33 u/L
- CREATININE [4]: 0.14 mg/dL
- GLUCOSE [4]: 156.33 mg/dL
- LACTATE DEHYDROGENASE [4]: 79 u/L
- POTASSIUM [4]: 6.73 MEQ/L
- TOTAL BILIRUBIN [4]: 0.23 mg/dL
- TOTAL PROTEIN [4]: 5.87 G/DL
